In ChEMBL document CHEMBL1641443, “Design, synthesis and biological evaluation of small molecule inhibitors of CD4-gp120 binding based on virtual screening” (Bioorg Med Chem, 2011):

System: Human immunodeficiency virus 1
Assay: Antiviral activity against recombinant HIV1 YU2 in Cf2Th-CCR5 cells assessed as viral infectivity by luciferase assasy relative to JRC-II-191; note: test concentration or dose not given here
Type: functional, isolate YU2

SMILES	fold change (FC)
NC(=O)C1CCN(CCC(=O)Nc2ccc(Br)cc2)CC1	0
CC1(C)CC(=O)c2cc(C(=O)Nc3ccc(Cl)cc3)c(=O)[nH]c2C1	0
CCN=C(S)N1CCN(CC(=O)Nc2ccc(Br)cc2)CC1	0
N=c1oc2cc(O)ccc2cc1C(=O)Nc1ccc(Cl)cc1	0
O=C(CN1CCCCCC1)Nc1ccc(Br)cc1	0
CC1CCCN(CCC(=O)Nc2ccc(Br)cc2)C1 (stereo not given)	0
Cc1ccc(N(C)C)cc1NC(=O)COc1ccc(Cl)cc1	0
Cc1cccc(-c2cc(C(=O)Nc3ccc(Cl)cc3)n[nH]2)c1O	0
O=C(Nc1ccc(Cl)cc1)c1cc(-n2cnnc2)[nH]n1	0
CC1(C)OC(=O)N(CCC(=O)Nc2ccc(Cl)cc2)[C@@]1(C)O	0
Cc1cc(OCC(=O)NCc2nc[nH]n2)ccc1Cl	0
O=C(NCCc1cnc[nH]1)Nc1ccc(Cl)c(Cl)c1	0
CC1(C)NC(=O)N(C[C@H](O)COc2ccc(Cl)cc2)C1=O	0
O=C(COC(=O)c1n[nH]c2ccccc12)Nc1ccc(Cl)cn1	0
C[C@H](Sc1nc(N)cc(N)n1)C(=O)Nc1ccc(Cl)cc1	0
CC1(C)CC(NC(=O)C(=O)Nc2ccc3cc[nH]c3c2)CC(C)(C)N1	0
CC1Sc2cc(C(=O)NC3CC(C)(C)NC(C)(C)C3)ccc2NC1=O (stereo not given)	0
CC1(C)CC(=NNC(=O)c2n[nH]c3c2CCCC3)CC(C)(C)N1	0
O=C(NCc1ccco1)C(=O)Nc1ccc(Br)cc1	0
CC1(C)CC(NC(=O)C(=O)NCCc2ccc(Cl)cc2)CC(C)(C)N1	0

SMILES	fold change (FC)
O=C(Nc1ccc(Br)cc1)c1cc(CN2CCCC2)on1	0
O=C(NCC1COc2ccccc2O1)C(=O)Nc1ccc(Br)cc1 (stereo not given)	0
Cc1nn(C)cc1CN(C)CC(=O)Nc1ccc(Br)cc1	0
COc1cccc(N[C@@H](C)C(=O)Nc2ccc(Br)cc2)c1	0
O=C(NCc1ccc2c(c1)OCO2)C(=O)Nc1ccc(Br)cc1	0
COc1cccc(NC(=O)C(=O)Nc2ccc(Cl)cc2)c1	0
O=C(CSCc1cc(O)[nH]n1)Nc1ccc(Br)cc1	0
CCN1CCCC1CNC(=O)C(=O)Nc1c(C(=O)OC)sc(C)c1C (stereo not given)	0
O=C(Nc1ccc(Br)cc1)C(=O)Nc1cccc2ccccc12	0
O=C(NCC1OCCc2ccccc21)C(=O)Nc1ccc(Br)cc1 (stereo not given)	0
CC(CC(=O)Nc1ccc(Br)cc1)Nc1cccc(CO)c1 (stereo not given)	0
COc1cccc(CNC(=O)C(=O)Nc2ccc(Cl)cc2)c1	0
O=C(NC[C@@H]1COC2(CCCC2)O1)C(=O)Nc1ccc(Cl)cc1	0
CC(C)C1CCN(CCC(=O)Nc2ccc(Br)cc2)CC1	0
Cc1cc(NC(=O)C(=O)c2c[nH]c3ccccc23)ccc1Br	0
C[C@@H]1CN(CCC(=O)Nc2ccc(Br)cc2)C[C@H](C)O1	0
CCOC(=O)[C@H]1CCCN(CCC(=O)Nc2ccc(Br)cc2)C1	0
C[C@H]1CCCN(CCC(=O)Nc2ccc(Cl)cc2)C1	0
Cc1ccc(C(C)C)c(OCC(=O)NNC(=O)Nc2ccc(Cl)cc2)c1	0
O=C(Nc1ccc(Cl)cc1)C(=O)c1c[nH]c2ccccc12	0
